Measured values: patent US20240150366A1, “4-AMINOQUINAZOLINE COMPOUND” (Astellas Pharma Inc., priority 2021, published 2024)

Columns and labels:
[1] = tested on: KRAS G12D mutant-positive pancreatic cancer line AsPC-1; experiment: Non-anchorage-dependent cell growth inhibitory activity in AsPC-1 (spheroid 3D culture); format: cell-based; details: Homo sapiens, ASPC1, 144 h, read-out: IC50, non-anchorage-dependent cell growth inhibition
Experimental: The non-anchorage-dependent cell growth inhibitory activities of subject compounds were evaluated by spheroid 3D cell culture.
AsPC-1 cells were seeded at 36 μL/well on a low-cell-adhesive round bottom 384-well plate (Prime Surface: from Sumitomo Bakelite) to give 5×10^2 cells per well. The cell culture was performed under the same conditions as in the Test Example 2.
The next day, the subject compounds (6 points having final concentrations in the range of 10 μM to 3.0 nM) and DMSO, which was the solvent for the subject compounds, as a negative control were diluted 100-fold with a fresh medium and were each added at 4 μL per well. After culturing in the presence of 5% CO2 at 37° C. for six days, CellTiter Glo 2.0 (from Promega) was added at 20 μL per well. After stirring with a plate mixer (from FINEPCR) at normal temperature for an hour, the luminescent signals were measured with ARVO X3 (from PerkinElmer).
With the signaling value in treatment with DMSO taken as 0% inhibition and with the signaling value in the medium alone without cells taken as 100% inhibition, the 50% inhibition values (IC50) were calculated by Sigmoid-Emax model nonlinear regression analysis.

[2] = tested on: ERK phosphorylation (Thr202/Tyr204) in KRAS G12D mutant-positive pancreatic cancer line AsPC-1; experiment: ERK phosphorylation inhibitory activity in AsPC-1 (cell ELISA); format: cell-based; details: Homo sapiens, ASPC1, 2 h, read-out: IC50, ERK phosphorylation inhibition
Experimental: The ERK phosphorylation inhibitory activities of subject compounds were evaluated by measuring phosphorylation of the 202th threonine (Thr202) and the 204th tyrosine (Tyr204) of ERK located downstream of the KRAS signal by cell ELISA.
AsPC-1 cells (ATCC, CRL-1682) were seeded at 36 μL/well on a 384-well plate (from Greiner bio-one) to give 2.0×10^4 cells per well. As for the cell culture conditions, RPMI-1640 medium (from Sigma-Aldrich) containing 10% fetal bovine serum (from GE Life Sciences) was used in the presence of 5% CO2 at 37° C.
The next day, the subject compounds (6 points having final concentrations in the range of 10 μM to 0.3 nM), trametinib (MEK inhibitor) of a final concentration of 1 μM as a positive control and DMSO, which was the solvent for the subject compounds, as a negative control were diluted 100-fold with a fresh medium and were each added at 4 μL per well, followed by culturing for 2 hours. After culturing, a 30% glyoxal solution (40% glyoxal [from Wako] was diluted with Phosphate Buffered Saline [PBS; from Wako) was quickly added at 30 μL per well, and the plate was allowed to stand for an hour at room temperature to thus immobilize the cells. Then, the plate was centrifuged (110× g, seven seconds, hereinafter centrifugation was performed under the same conditions unless otherwise specified) to remove the supernatant, and 0.1% Triton X-100 (from Amersham Biosciences)—containing PBS was added at 20 μL per well. After allowing the plate to stand for 10 minutes at room temperature, the supernatant was removed by centrifugation, and the same operation was further repeated. Next, 0.5% sodium dodecyl sulfate (SDS; from Invitrogen)-containing PBS was added at 20 μL per well. The plate was allowed to stand at room temperature for 30 minutes and was then centrifuged to remove the supernatant. Subsequently, a blocking solution (Intercept Blocking Buffer; from LI-COR Biosciences) was added at 20 μL per well, and the plate was allowed to stand for an hour at room temperature. The supernatant was removed by centrifugation, and an ERK (Thr202/Tyr204) phosphorylation antibody (Phospho-p44/42 MAPK (Erk 1/2) (Thr202/Tyr204) (D13.14.4E) XP Rabbit mAb; from Cell Signaling Technology) diluted 2,500-fold with the blocking solution was added at 10 μL per well as a primary antibody. The plate was allowed to stand at 4° C. overnight.
The next day, the plate was centrifuged to remove the supernatant, and 0.05% Tween-20-containing PBS (from Thermo Scientific; 20× PBS Tween-20 was diluted 20-fold with ion exchange water and used) was added at 20 μL per well. The supernatant was removed by centrifugation to thus wash each well. The washing was performed three times in total. After washing, an IRDye 800CW Goat anti-Rabbit IgG (from LI-COR Biosciences) diluted 1,000-fold with the blocking solution was added at 10 μL per well as a secondary antibody, and the plate was allowed to stand for an hour at room temperature. The plate was centrifuged to remove the supernatant, and each well was washed three times with 0.05% Tween-20-containing PBS in the same manner as after the primary antibody reaction. Centrifugation after the third washing was performed at 171×g for 17 seconds. After removing the supernatant, the plate was dried as it was with air at room temperature for three hours or more, and the 800-nm fluorescent signals were measured with Aerius (from LI-COR Biosciences).
With the signaling value at the time of addition of DMSO taken as 0% inhibition and with the signaling value at the time of addition of […] trametinib taken as 100% inhibition, the 50% inhibition values (IC50) were calculated by Sigmoid-Emax model nonlinear regression analysis.

[3] = target: KRAS G12D/SOS/c-Raf complex (Homo sapiens (Human), UniProt P01116, G12D); experiment: KRAS G12D/SOS/c-Raf complex formation inhibitory activity (TR-FRET); format: biochemical; details: human recombinant proteins, 1 hour at room temperature, read-out: IC50, KRAS G12D/SOS/c-Raf complex formation inhibition
Experimental: Using human recombinant KRAS G12D, SOS and c-Raf proteins, the inhibitory activity of subject compounds on the complex formation of the proteins was examined by a time-resolved fluorescence resonance energy transfer (TR-FRET) method.
Biotinylated AviTag-KRAS G12D (amino acid region of 1-185, GDP) (2.5 μL; 400 nM) and subject compounds dissolved in an assay buffer (50 mM HEPES, 150 mM NaCl, 5 mM MgCl2, 0.05% Tween 20, pH 7.0) were added to a 384-well plate (from Corning) in a liquid volume of 2.5 μL at 40,000 nM to 40 nM. Son of Sevenless (SOS) (amino acid region of 564-1049, 2.5 μL; 1.3 μM) and c-Raf (amino acid region of 51-131) GST (2.5 μL; 130 nM) containing GTP (from Sigma-Aldrich; 2 μM) were added to the plate, and the plate was allowed to stand for 1 hour at room temperature. Then, a mixture liquid (10 μL) of LANCE Ulight-anti-GST (from PerkinElmer; 120 nM) and LANCE Eu-W1024 labeled Streptoavidin (from PerkinElmer; 100 ng/mL) was added, and the 620-nm and 665-nm fluorescence intensities were measured using EnVision 2104 (from PerkinElmer) under the conditions of an excitation wavelength of 337 nm. After standardizing the values with the fluorescence intensity at a reference wavelength of 620 nm, the 50% inhibitory concentrations (IC50) were calculated by Sigmoid-Emax model nonlinear regression analysis with the signaling value in treatment with the solvent taken as 0% inhibition and with the signaling value without the addition of GTP taken as 100% inhibition.

Sequence of KRAS G12D/SOS/c-Raf complex (P01116 other isoform, or with tags, fused parts or gaps G12D): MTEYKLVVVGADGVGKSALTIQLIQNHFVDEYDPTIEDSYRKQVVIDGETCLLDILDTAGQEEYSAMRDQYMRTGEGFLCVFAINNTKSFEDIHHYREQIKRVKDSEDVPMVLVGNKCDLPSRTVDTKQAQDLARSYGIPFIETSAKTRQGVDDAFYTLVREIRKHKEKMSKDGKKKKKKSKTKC

Row | Compound | IC50 [1] [nM] | IC50 [2] [nM] | IC50 [3] [nM]
1 | CCN1CCN(Cc2ccc(COc3c(-c4c(C)c(F)cc5[nH]ncc45)c(C4CC4)cc4c(N5C[C@@H]6C[C@H]5CN6)nc(OC5CCOCC5)nc34)cc2)C(=O)C1 [Example 4, 1-({4-[({6-cyclopropyl-4-[(1S,4S)-2,5-diazabicyclo[2.2.1]heptan-2-yl]-7-(6-fluoro-5-methyl-1H-indazol-4-yl)-2-[(oxan-4-yl)oxy]quinazolin-8-yl}oxy)methyl]phenyl}methyl)-4-ethylpiperazin-2-one] | 99 | 37 | 100
2 | Cc1c(F)cc2[nH]ncc2c1-c1c(C2CC2)cc2c(N3C[C@@H]4C[C@H]3CN4)nc(OC3CCOCC3)nc2c1OCc1ccc(CN2CCN(C3CCOCC3)CC2=O)cc1 [Example 5, 1-({4-[({6-cyclopropyl-4-[(1S,4S)-2,5-diazabicyclo[2.2.1]heptan-2-yl]-7-(6-fluoro-5-methyl-1H-indazol-4-yl)-2-[(oxan-4-yl)oxy]quinazolin-8-yl}oxy)methyl]phenyl}methyl)-4-(oxan-4-yl)piperazin-2-one] | 83 | 32 | 107
3 | Cc1c(F)cc2[nH]ncc2c1-c1c(C2CC2)cc2c(N3C[C@@H]4C[C@H]3CN4)nc(OC3CCOCC3)nc2c1OCc1ccc(CN2CCN(C(C)C)CC2=O)cc1 [Example 6, 1-({4-[({6-cyclopropyl-4-[(1S,4S)-2,5-diazabicyclo[2.2.1]heptan-2-yl]-7-(6-fluoro-5-methyl-1H-indazol-4-yl)-2-[(oxan-4-yl)oxy]quinazolin-8-yl}oxy)methyl]phenyl}methyl)-4-(propan-2-yl)piperazin-2-one] | 92 | 36 | 91
4 | Cc1c(F)cc2[nH]ncc2c1-c1c(C2CC2)cc2c(N3C[C@@H]4C[C@H]3CN4)nc(O[C@@H]3CCCc4cnccc43)nc2c1OCc1ccc(Cn2c(=O)n(C)c3ncccc32)cc1 [Example 8, 1-[(4-{[(6-cyclopropyl-4-[(1S,4S)-2,5-diazabicyclo[2.2.1]heptan-2-yl]-7-(6-fluoro-5-methyl-1H-indazol-4-yl)-2-{[(5R)-5,6,7,8-tetrahydroisoquinolin-5-yl]oxy}quinazolin-8-yl)oxy]methyl}phenyl)methyl]-3-methyl-1,3-dihydro-2H-imidazo[4,5-b]pyridin-2-one] | 73 | 30 | 40
5 | Cc1cc(C)n2cc(Cc3ccc(COc4c(-c5c(C)c(F)cc6[nH]ncc56)c(C5CC5)cc5c(N6C[C@@H]7C[C@H]6CN7)nc(OC6CCOCC6)nc45)cc3)nc2n1 [Example 9, 6-cyclopropyl-4-[(1S,4S)-2,5-diazabicyclo[2.2.1]heptan-2-yl]-8-({4-[(5,7-dimethylimidazo[1,2-a]pyrimidin-2-yl)methyl]phenyl}methoxy)-7-(6-fluoro-5-methyl-1H-indazol-4-yl)-2-[(oxan-4-yl)oxy]quinazoline] | 84 | 44 | 44
6 | Cc1c(F)cc2[nH]ncc2c1-c1c(C2CC2)cc2c(N3C[C@@H]4C[C@H]3CN4)nc(OCc3cccnc3C(C)C)nc2c1OCc1ccc(Cn2c(=O)n(C)c3ncccc32)cc1 [Example 10, 1-[(4-{[(6-cyclopropyl-4-[(1S,4S)-2,5-diazabicyclo[2.2.1]heptan-2-yl]-7-(6-fluoro-5-methyl-1H-indazol-4-yl)-2-{[2-(propan-2-yl)pyridin-3-yl]methoxy}quinazolin-8-yl)oxy]methyl}phenyl)methyl]-3-methyl-1,3-dihydro-2H-imidazo[4,5-b]pyridin-2-one] | 77 | 41 | 33
7 | Cc1c(F)cc2[nH]ncc2c1-c1c(C2CC2)cc2c(N3C[C@@H]4C[C@H]3CN4)nc(OC3CCOCC3)nc2c1OCc1ccc(Cn2nc(-c3cnccn3)nc2C)cc1 [Example 11, 6-cyclopropyl-4-[(1S,4S)-2,5-diazabicyclo[2.2.1]heptan-2-yl]-7-(6-fluoro-5-methyl-1H-indazol-4-yl)-8-[(4-{[5-methyl-3-(pyrazin-2-yl)-1H-1,2,4-triazol-1-yl]methyl}phenyl)methoxy]-2-[(oxan-4-yl)oxy]quinazoline] | 133 | 81 | 110
8 | Cc1c(F)cc2[nH]ncc2c1-c1c(C2CC2)cc2c(N3C[C@@H]4C[C@H]3CN4)nc(OC3CCOCC3)nc2c1OCc1ccc(Cn2nc3n(c2=O)CCOC3)cc1 [Example 12, 2-({4-[({6-cyclopropyl-4-[(1S,4S)-2,5-diazabicyclo[2.2.1]heptan-2-yl]-7-(6-fluoro-5-methyl-1H-indazol-4-yl)-2-[(oxan-4-yl)oxy]quinazolin-8-yl}oxy)methyl]phenyl}methyl)-2,5,6,8-tetrahydro-3H-[1,2,4]triazolo[3,4-c][1,4]oxazin-3-one] | 153 | 72 | 74
9 | Cc1c(F)cc2[nH]ncc2c1-c1c(C2CC2)cc2c(N3C[C@@H]4C[C@H]3CN4)nc(OC3CCOCC3)nc2c1OCc1ccc(Cc2nc3ncccn3n2)cc1 [Example 13, 6-cyclopropyl-4-[(1S,4S)-2,5-diazabicyclo[2.2.1]heptan-2-yl]-7-(6-fluoro-5-methyl-1H-indazol-4-yl)-2-[(oxan-4-yl)oxy]-8-({4-[([1,2,4]triazolo[1,5-a]pyrimidin-2-yl)methyl]phenyl}methoxy)quinazoline] | 130 | 78 | 77
